In US8207208B2, “Angiotensin II receptor antagonists” (Merck Sharp & Dohme Corp., priority 2008, dated 2012):

What was measured:
[1] = test system: vessel; experiment: vessel relaxation assay
[2] = test system: reactive nitrogen species (RNS), detected as S-nitrosothiols in rat plasma; experiment: DAN assay of reactive nitrogen species in plasma after oral dosing of rats; assay type: in vivo, Sprague-Dawley rats; details: fasted SD rats, 40 mpk PO
Method: Mononitrate compounds that have been orally dosed to rats result in nitrites (metabolites of nitric oxide) circulating in plasma with maximal concentrations in the 0.5-2 μM range. Similar dosing of isosorbide mononitrate compounds described in this invention results in increased circulating nitrite concentrations. Biochemical evidence for the generation of NO in vivo in response to test compound administration was obtained from studies in Sprague-Dawley rats. Administration of test compound to fasted SD rats (40 mpk, PO) results in the appearance of reactive nitrogen species (RNS), assessed using the diaminonapthalene derivitization (DAN) assay.
RNS were detected as S-nitrosothiols (RNSOs) in EDTA-treated rat plasma using an HPLC fluorescent assay based on the method of Kostka and Park (Methods Enzymol. 1999, 301, 227-235). The method is based on the detection of fluorescent 2,3-naphthotriazole (NAT) formed in the reaction between acidified 2,3-diaminonaphthalene and the nitrosonium moiety of RSNOs released by HgCl2-mediated breakdown of the S—NO bond. The reaction mixture was chromatographed by reversed phase HPLC, and the fluorescent signal of the resolved NAT peak was quantified.
Plasma (20 μL) was first diluted 1:1 in H2O (20 μL) in a black polypropylene untreated microtiter plate. DAN reagent (100 μL per well, 100 μM DAN in 0.1 N HCl, 4 mM HgCl2) was added, and the plate was immediately sealed with an opaque plate mat, vortexed, and incubated in the dark for 10 min. Plates were centrifuged (2000×g, 5 min) and chilled to 4° C. before HPLC analysis. HPLC was carried out on an Agilent 1200 system using a chilled autosampler (4° C.). Samples were chromatographed on a C8 column (Zorbax Eclipse XDB-C8, 4.6×150 mm, 5 μm) with isocratic elution using a mobile phase of 67% MeOH, 0.1% NH4OAc and a flow rate of 2 mL/min. NAT fluorescence was monitored at 450 nm using an excitation wavelength of 360 nm. Calibration curves were prepared using NaNO2 in control plasma.
RNS change for Examples 2, 3, 4, 5, 7, 10, 11 and 12 was measured at 1, 3, 6 and 24 hours, and is shown below.

Compound | EC50 [1] | DAN ΔRNS ([2]; 1 h) | DAN ΔRNS ([2]; 3 h) | DAN ΔRNS ([2]; 6 h) | DAN ΔRNS ([2]; 24 h)
2-{[(3S,3aR,6R,6aS)-6-(nitrooxy)hexahydrofuro[3,2-b]furan-3-yl]oxy}-2-oxoethyl 2-butyl-4-chloro-1-{[2′-(1H-tetrazol-5-yl)biphenyl-4-yl]methyl}-1H-imidazole-5-carboxylate [Example 9] | 5.1 µM |  |  |  | 
CCCCc1nc(Cl)c(C(=O)O[C@H]2CO[C@H]3[C@@H]2OC[C@H]3O[N+](=O)[O-])n1Cc1ccc(-c2ccccc2-c2nnn[nH]2)cc1 [Example 7, (3S,3aR,6R,6aS)-6-(nitrooxy)hexahydrofuro[3,2-b]furan-3-yl 2-butyl-4-chloro-1-{[2′-(1H-tetrazol-5-yl)biphenyl-4-yl]methyl}-1H-imidazole-5-carboxylate] |  | 5.4 ± 3.2 µM | 1.5 ± 1.2 µM | 0.2 ± 0.3 µM | -0.3 ± 0.2 µM
CCOc1nc2cccc(C(=O)OC(C)(C)OC(=O)O[C@H]3CO[C@H]4[C@@H]3OC[C@H]4O[N+](=O)[O-])c2n1Cc1ccc(-c2ccccc2-c2nnn[nH]2)cc1 [Example 1, 1-[({[(3S,6R)-6-(nitrooxy)hexahydrofuro[3,2-b]furan-3-yl]oxy}carbonyl)oxy]-1-methylethyl 2-ethoxy-1-{[2′-(1H-tetrazol-5-yl)biphenyl-4-yl]methyl}-1H-benzimidazole-7-carboxylate] | 14.2 µM |  |  |  | 
CCCCc1nc(Cl)c(C(=O)O[C@H](C)OC(=O)O[C@H]2CO[C@H]3[C@@H]2OC[C@H]3O[N+](=O)[O-])n1Cc1ccc(-c2ccccc2-c2nnn[nH]2)cc1 [Example 2, (1S)-1-[({[(3S,3aR,6R,6aS)-6-(nitrooxy)hexahydrofuro[3,2-b]furan-3-yl]oxy}carbonyl)oxy]ethyl 2-butyl-4-chloro-1-{[2′-(1H-tetrazol-5-yl)biphenyl-4-yl]methyl}-1H-imidazole-5-carboxylate] | 9.5 µM | 2.3 ± 1.0 µM | 6.1 ± 1.1 µM | 4.5 ± 1.4 µM | 1.1 ± 0.7 µM
CCOc1nc2cccc(C(=O)O[C@@H](C)OC(=O)O[C@H]3CO[C@H]4[C@@H]3OC[C@H]4O[N+](=O)[O-])c2n1Cc1ccc(-c2ccccc2-c2nnn[nH]2)cc1 [Example 5, (1R)-1-[({[(3S,3aR,6R,6aS)-6-(nitrooxy)hexahydrofuro[3,2-b]furan-3-yl]oxy}carbonyl)oxy]ethyl 2-ethoxy-1-{[2′-(1H-tetrazol-5-yl)biphenyl-4-yl]methyl}-1H-benzimidazole-7-carboxylate] |  | 0.7 ± 0.5 µM | 2.5 ± 1.0 µM | 2.4 ± 1.2 µM | -0.3 ± 0.6 µM
CCOc1nc2cccc(C(=O)O[C@H](C)OC(=O)O[C@H]3CO[C@H]4[C@@H]3OC[C@H]4O[N+](=O)[O-])c2n1Cc1ccc(-c2ccccc2-c2nnn[nH]2)cc1 [Example 4, (1S)-1-[({[(3S,3aR,6R,6aS)-6-(nitrooxy)hexahydrofuro[3,2-b]furan-3-yl]oxy}carbonyl)oxy]ethyl 2-ethoxy-1-{[2′-(1H-tetrazol-5-yl)biphenyl-4-yl]methyl}-1H-benzimidazole-7-carboxylate] | 8.9 µM | 0.9 ± 0.2 µM | 2.1 ± 1.4 µM | 4.2 ± 2.1 µM | 0.6 ± 0.3 µM
CCCCc1nc(Cl)c(C(=O)OCCC(=O)O[C@H]2CO[C@H]3[C@@H]2OC[C@H]3O[N+](=O)[O-])n1Cc1ccc(-c2ccccc2-c2nnn[nH]2)cc1 [Example 12, 3-{[(3S,3aR,6R,6aS)-6-(nitrooxy)hexahydrofuro[3,2-b]furan-3-yl]oxy}-3-oxopropyl 2-butyl-4-chloro-1-{[2′-(1H-tetrazol-5-yl)biphenyl-4-yl]methyl}-1H-imidazole-5-carboxylate] | 20.6 µM | 0.5 ± 0.2 µM | 1.5 ± 0.9 µM | 1.3 ± 0.6 µM | 0.0 ± 0.2 µM
CCCCc1nc(Cl)c(C(=O)O[C@H](C)C(=O)O[C@H]2CO[C@H]3[C@@H]2OC[C@H]3O[N+](=O)[O-])n1Cc1ccc(-c2ccccc2-c2nnn[nH]2)cc1 [Example 10, (1R)-1-methyl-2-{[(3S,3aR,6R,6aS)-6-(nitrooxy)hexahydrofuro[3,2-b]furan-3-yl]oxy}-2-oxoethyl 2-butyl-4-chloro-1-{[2′-(1H-tetrazol-5-yl)biphenyl-4-yl]methyl}-1H-imidazole-5-carboxylate] |  | 0.7 ± 0.3 µM | 2.0 ± 0.4 µM | 1.9 ± 0.7 µM | 0.1 ± 0.3 µM
CCCCc1nc(Cl)c(C(=O)O[C@@H](C)C(=O)O[C@H]2CO[C@H]3[C@@H]2OC[C@H]3O[N+](=O)[O-])n1Cc1ccc(-c2ccccc2-c2nnn[nH]2)cc1 [Example 11, (1S)-1-methyl-2-{[(3S,3aR,6R,6aS)-6-(nitrooxy)hexahydrofuro[3,2-b]furan-3-yl]oxy}-2-oxoethyl 2-butyl-4-chloro-1-{[2′-(1H-tetrazol-5-yl)biphenyl-4-yl]methyl}-1H-imidazole-5-carboxylate] |  | 1.1 ± 1.2 µM | 3.3 ± 1.5 µM | 1.8 ± 2.0 µM | 0.1 ± 1.8 µM
CCCCc1nc(Cl)c(C(=O)O[C@@H](C)OC(=O)O[C@H]2CO[C@H]3[C@@H]2OC[C@H]3O[N+](=O)[O-])n1Cc1ccc(-c2ccccc2-c2nnn[nH]2)cc1 [Example 3, (1R)-1-[({[(3S,3aR,6R,6aS)-6-(nitrooxy)hexahydrofuro[3,2-b]furan-3-yl]oxy}carbonyl)oxy]ethyl 2-butyl-4-chloro-1-{[2′-(1H-tetrazol-5-yl)biphenyl-4-yl]methyl}-1H-imidazole-5-carboxylate] | 15.4 µM | 0.5 ± 0.4 µM | 2.7 ± 0.5 µM | 3.0 ± 0.5 µM | 0.1 ± 0.7 µM
